Assay results as given in patent US20170176440A1, “METHODS AND COMPOSITIONS FOR EVALUATING BREAST CANCER PATIENTS” (THE BOARD OF REGENTS OF THE UNIVERSITY OF TEXAS SYSTEM, priority 2014, published 2017).

T1: ERβ pY36-containing peptide SIYIPSS(pY)VDSHHE
T1 chain: SIYIPSSYVDSHHE

T2: Flag-ERβ (WT)
T2 chain: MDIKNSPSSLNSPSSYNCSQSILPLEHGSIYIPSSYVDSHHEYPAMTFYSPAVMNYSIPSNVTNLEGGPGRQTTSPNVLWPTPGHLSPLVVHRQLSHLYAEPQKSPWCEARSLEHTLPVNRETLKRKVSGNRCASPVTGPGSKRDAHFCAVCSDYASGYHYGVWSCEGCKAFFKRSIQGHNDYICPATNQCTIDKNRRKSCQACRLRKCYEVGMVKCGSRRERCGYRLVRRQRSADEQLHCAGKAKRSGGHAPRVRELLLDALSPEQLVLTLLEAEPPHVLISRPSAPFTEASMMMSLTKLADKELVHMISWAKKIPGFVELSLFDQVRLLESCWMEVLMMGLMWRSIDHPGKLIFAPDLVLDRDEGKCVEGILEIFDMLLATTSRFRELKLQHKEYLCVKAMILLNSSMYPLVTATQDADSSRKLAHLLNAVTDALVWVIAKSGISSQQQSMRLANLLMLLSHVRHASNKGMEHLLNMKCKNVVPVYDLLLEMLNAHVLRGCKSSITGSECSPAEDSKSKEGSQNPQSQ


How the values were obtained:
[1] = tested on: pY36 of ERβ in MDA-MB-231 cells; assay: pY36 of endogenous ERβ in MDA-MB-231 cells treated with ERβ agonists; format: cell-based; settings: agonists 10 nM, 2 hr (FIG. 19C)
[2] = tested on: p300 recruitment to ERβ target promoters MDA7 and MSMB; assay: p300 ChIP at ERβ target promoters in Hs578T cells; format: cell-based; settings: WT-ERβ-expressing Hs578T cells; E2 10 nM
Method: For ChIP experiments in the ERβ-inducible Hs578T cells, 100 ng/ml doxcycline was added for 24 hr. […] Cells were cross-linked with 1% formaldehyde for 10 min, treated with glycine at a final concentration of 0.125 M for 5 min at room temperature, and lysed in lysis buffer (5 mM HEPES pH 9.0, 85 mM KCl, 0.5% Triton X-100) for 15 min on ice. Nuclei were resuspended in nuclei lysis buffer (50 mM Tris-HCl pH 8.0, 10 mM EDTA, 1% SDS), and the cross-linked DNA was sonicated for 10 min (with a 30 s on/off cycle) using a Bioruptor sonicator (Diagenode). The supernatant was used for ChIP as previously described (Ding et al., Mol Cell., 2008, (31)347-59).

[3] = two completed and published clinical trials; cited from earlier work
p300 = target: T3, p300 (UniProt Q09472 2-2414, limits assumed); assay: co-IP of Flag-ERβ with endogenous p300 in HEK293T cells
T3 construct: also called endogenous p300
T3 sequence (Q09472 2-2414 limits assumed): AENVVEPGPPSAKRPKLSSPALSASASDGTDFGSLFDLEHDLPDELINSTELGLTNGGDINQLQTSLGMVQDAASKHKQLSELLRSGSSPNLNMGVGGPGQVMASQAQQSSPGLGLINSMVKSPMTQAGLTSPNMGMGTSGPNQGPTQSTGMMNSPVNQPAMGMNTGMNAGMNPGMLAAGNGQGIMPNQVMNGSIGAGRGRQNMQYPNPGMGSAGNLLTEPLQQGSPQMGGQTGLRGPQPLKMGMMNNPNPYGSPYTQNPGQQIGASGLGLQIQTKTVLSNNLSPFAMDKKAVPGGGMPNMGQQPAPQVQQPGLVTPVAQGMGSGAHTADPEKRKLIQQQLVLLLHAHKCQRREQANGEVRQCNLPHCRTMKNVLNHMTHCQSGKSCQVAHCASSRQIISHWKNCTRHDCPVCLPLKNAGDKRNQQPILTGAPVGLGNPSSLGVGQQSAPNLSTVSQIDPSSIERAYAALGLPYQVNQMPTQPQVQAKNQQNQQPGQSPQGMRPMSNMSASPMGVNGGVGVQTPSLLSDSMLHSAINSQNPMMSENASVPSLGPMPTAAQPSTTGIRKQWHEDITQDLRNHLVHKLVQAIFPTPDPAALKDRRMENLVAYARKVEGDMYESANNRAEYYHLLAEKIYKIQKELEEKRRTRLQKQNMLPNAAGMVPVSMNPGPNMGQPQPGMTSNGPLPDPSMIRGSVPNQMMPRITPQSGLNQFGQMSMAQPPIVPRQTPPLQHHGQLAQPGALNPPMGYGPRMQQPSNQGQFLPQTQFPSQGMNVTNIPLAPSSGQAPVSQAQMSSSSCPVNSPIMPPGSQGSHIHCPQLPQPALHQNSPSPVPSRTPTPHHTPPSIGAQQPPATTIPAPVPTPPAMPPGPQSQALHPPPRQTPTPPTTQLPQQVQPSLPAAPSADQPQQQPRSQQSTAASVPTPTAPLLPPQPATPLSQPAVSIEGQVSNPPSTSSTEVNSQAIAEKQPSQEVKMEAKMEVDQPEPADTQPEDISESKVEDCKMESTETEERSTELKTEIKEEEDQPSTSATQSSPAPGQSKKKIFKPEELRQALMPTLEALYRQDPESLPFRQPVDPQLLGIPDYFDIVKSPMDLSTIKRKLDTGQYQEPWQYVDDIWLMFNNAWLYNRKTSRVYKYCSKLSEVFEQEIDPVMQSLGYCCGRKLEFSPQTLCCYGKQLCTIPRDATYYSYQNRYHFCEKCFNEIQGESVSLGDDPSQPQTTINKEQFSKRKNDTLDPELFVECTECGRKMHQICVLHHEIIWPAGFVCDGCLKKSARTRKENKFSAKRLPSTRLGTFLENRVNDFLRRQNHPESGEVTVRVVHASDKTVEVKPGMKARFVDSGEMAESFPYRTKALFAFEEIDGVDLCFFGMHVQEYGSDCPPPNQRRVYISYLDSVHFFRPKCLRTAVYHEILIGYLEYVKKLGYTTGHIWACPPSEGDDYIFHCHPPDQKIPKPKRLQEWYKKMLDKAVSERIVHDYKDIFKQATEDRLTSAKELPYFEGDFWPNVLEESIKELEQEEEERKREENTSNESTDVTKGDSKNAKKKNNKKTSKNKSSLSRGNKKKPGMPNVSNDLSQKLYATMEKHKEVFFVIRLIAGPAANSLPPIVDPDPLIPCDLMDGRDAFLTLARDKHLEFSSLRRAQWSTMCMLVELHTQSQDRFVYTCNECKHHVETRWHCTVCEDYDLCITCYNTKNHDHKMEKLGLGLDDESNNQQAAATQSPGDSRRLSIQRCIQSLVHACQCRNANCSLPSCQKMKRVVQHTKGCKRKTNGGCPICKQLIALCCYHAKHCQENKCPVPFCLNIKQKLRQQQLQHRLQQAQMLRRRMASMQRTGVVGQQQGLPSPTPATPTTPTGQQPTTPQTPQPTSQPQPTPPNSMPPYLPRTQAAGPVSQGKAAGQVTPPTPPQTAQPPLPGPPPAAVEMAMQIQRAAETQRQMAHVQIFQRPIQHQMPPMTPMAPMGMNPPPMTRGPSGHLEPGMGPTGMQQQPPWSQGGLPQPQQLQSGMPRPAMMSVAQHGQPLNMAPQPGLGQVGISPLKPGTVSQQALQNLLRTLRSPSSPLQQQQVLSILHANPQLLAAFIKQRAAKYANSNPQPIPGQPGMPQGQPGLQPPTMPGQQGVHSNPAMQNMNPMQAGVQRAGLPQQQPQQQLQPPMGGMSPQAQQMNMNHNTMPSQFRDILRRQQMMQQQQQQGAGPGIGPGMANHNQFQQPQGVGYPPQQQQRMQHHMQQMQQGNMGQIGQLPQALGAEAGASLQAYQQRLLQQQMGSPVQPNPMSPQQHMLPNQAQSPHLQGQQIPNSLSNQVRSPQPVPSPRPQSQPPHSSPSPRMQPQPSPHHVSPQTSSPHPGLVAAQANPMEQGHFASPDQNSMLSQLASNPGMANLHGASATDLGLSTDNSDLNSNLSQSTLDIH

[4] = target: T1, ERβ pY36-containing peptide …
Flag-ERβ (WT) = target: T2, Flag-ERβ (WT)

Molecule	ERβ phosphorylation (pY36) [1]	binding result (p300)	also measured
N#CC(Cc1ccc(O)cc1)c1ccc(O)cc1 (stereo not drawn) [DPN, diarylpropionitrile]	enhanced		
C[C@]12CC[C@@H]3c4ccc(O)cc4CC[C@H]3[C@@H]1CC[C@@H]2O [E2, 17-β-estradiol]	enhanced		recruitment of p300 to the ERβ target promoters [2]: stimulated cyclic recruitment of p300
Oc1ccc([C@H]2COc3cc(O)ccc3C2)cc1 [S-equol]	enhanced		safety and drug tolerance [3]: has been demonstrated
Flag-ERβ (WT) (receptor, phosphotyrosine at 36 (pY36), as phosphorylated in HEK293T cells, Expressed in HEK293T cells and immunoprecipitated by the Flag tag; also called WT-ERβ; Flag-tagged WT ERβ; not shown: Flag tag) MDIKNSPSSLNSPSSYNCSQSILPLEHGSIYIPSSYVDSHHEYPAMTFYSPAVMNYSIPSNVTNLEGGPGRQTTSPNVLWPTPGHLSPLVVHRQLSHLYAEPQKSPWCEARSLEHTLPVNRETLKRKVSGNRCASPVTGPGSKRDAHFCAVCSDYASGYHYGVWSCEGCKAFFKRSIQGHNDYICPATNQCTIDKNRRKSCQACRLRKCYEVGMVKCGSRRERCGYRLVRRQRSADEQLHCAGKAKRSGGHAPRVRELLLDALSPEQLVLTLLEAEPPHVLISRPSAPFTEASMMMSLTKLADKELVHMISWAKKIPGFVELSLFDQVRLLESCWMEVLMMGLMWRSIDHPGKLIFAPDLVLDRDEGKCVEGILEIFDMLLATTSRFRELKLQHKEYLCVKAMILLNSSMYPLVTATQDADSSRKLAHLLNAVTDALVWVIAKSGISSQQQSMRLANLLMLLSHVRHASNKGMEHLLNMKCKNVVPVYDLLLEMLNAHVLRGCKSSITGSECSPAEDSKSKEGSQNPQSQ		binds	
Flag-ERβ Y36E (receptor, Expressed in HEK293T cells; also called Y36E-ERβ; Y36E mutant; not shown: Flag tag) MDIKNSPSSLNSPSSYNCSQSILPLEHGSIYIPSSEVDSHHEYPAMTFYSPAVMNYSIPSNVTNLEGGPGRQTTSPNVLWPTPGHLSPLVVHRQLSHLYAEPQKSPWCEARSLEHTLPVNRETLKRKVSGNRCASPVTGPGSKRDAHFCAVCSDYASGYHYGVWSCEGCKAFFKRSIQGHNDYICPATNQCTIDKNRRKSCQACRLRKCYEVGMVKCGSRRERCGYRLVRRQRSADEQLHCAGKAKRSGGHAPRVRELLLDALSPEQLVLTLLEAEPPHVLISRPSAPFTEASMMMSLTKLADKELVHMISWAKKIPGFVELSLFDQVRLLESCWMEVLMMGLMWRSIDHPGKLIFAPDLVLDRDEGKCVEGILEIFDMLLATTSRFRELKLQHKEYLCVKAMILLNSSMYPLVTATQDADSSRKLAHLLNAVTDALVWVIAKSGISSQQQSMRLANLLMLLSHVRHASNKGMEHLLNMKCKNVVPVYDLLLEMLNAHVLRGCKSSITGSECSPAEDSKSKEGSQNPQSQ		binds	
GST-EYA2 (protein) MVELVISPSLTVNSDCLDKLKFNRADAAVWTLSDRQGITKSAPLRVSQLFSRSCPRVLPRQPSTAMAAYGQTQYSAGIQQATPYTAYPPPAQAYGIPSYSIKTEDSLNHSPGQSGFLSYGSSFSTSPTGQSPYTYQMHGTTGFYQGGNGLGNAAGFGSVHQDYPSYPGFPQSQYPQYYGSSYNPPYVPASSICPSPLSTSTYVLQEASHNVPNQSSESLAGEYNTHNGPSTPAKEGDTDRPHRASDGKLRGRSKRSSDPSPAGDNEIERVFVWDLDETIIIFHSLLTGTFASRYGKDTTTSVRIGLMMEEMIFNLADTHLFFNDLEDCDQIHVDDVSSDDNGQDLSTYNFSADGFHSSAPGANLCLGSGVHGGVDWMRKLAFRYRRVKEMYNTYKNNVGGLIGTPKRETWLQLRAELEALTDLWLTHSLKALNLINSRPNCVNVLVTTTQLIPALAKVLLYGLGSVFPIENIYSATKTGKESCFERIMQRFGRKAVYVVIGDGVEEEQGAKKHNMPFWRISCHADLEALRHALELEYL			in vitro tyrosine phosphatase assay (release of free phosphate, Malachite Green) [4]: A pY36-containing ERβ peptide that can be dephosphorylated efficiently by recombinant WT-EYA2; in vitro dephosphorylation of immunoprecipitated Flag-ERβ, pY36 immunoblot (Flag-ERβ (WT)): recombinant WT, but not mutant EYA2 completely eliminated the pY36 signal of ERβ in vitro
